Laboratory results as given in US20260256721A1, “ANTI-COCCIDIAL COMPOSITION COMPRISING QUINIC ACID AND USES THEREOF” (priority 2023, published 2026).
Read-outs that look alike come from different tables or passages of the source.

Key:
[1] = tested on: Eimeria maxima protozoa (sporozoites); test: Direct killing effect against Eimeria maxima protozoa (live sporozoites counted by microscopy); assay type: cell-based; details: 3 h, read-out: Mortality rate of Eimeria maxima orozites [Killed sporozoites %]
Source text: (§1) A certain amount of oocysts (eggs) of Eimeria tenella and Eimeria maxima protozoa (College of Veterinary Medicine, Gyeongsang National University, Korea) were put in a tube containing glass beads and crushed, and then, in order to remove crushed oocyst cell walls and other debris, internal sporocysts were purified using Percoll density gradient, and washed with a PBS solution. For excystation of internal sporozoites, reagents comprising sodium taurocholic acid (sigma aldirich, USA) and trypsin (Ginco, USA), respectively, were treated to Eimeria tenella and Eimeria maxima sporangia and they were incubated, and then washed with PBS (Phosphate-Buffered Saline) solution once and the protozoa were obtained.
(§2) Then, the mortality rate (%) was measured when each substance was treated compared to a negative control group to which PBS was treated, and the result is shown in Table 3 below.

[2] = tested on: Eimeria tenella protozoa (sporozoites); test: microbe, parasite or virus in culture; assay type: cell-based
Source text: as §1
Quinic acid (Sigma, Cas No. 77-95-2) at concentrations ranging from 0 to 1000 ppm was reacted with Eimeria tenella oocysts at 40° C. for 3 hours. Following this, only live protozoa (sporozoites) were counted by microscopy. The mortality rate (%) of the protozoa was measured for each substance treatment compared to the negative control group treated with PBS. The results, as shown in FIG. 1 and Table 2, confirmed the anti-coccidial efficacy of quinic acid depending on the concentration.
as §2
After reacting 0.1% (v/v) DMSO, quinic acid, chlorogenic acid, theogallin, and cryptochlorogenic acid, respectively, with Eimeria tenella protozoa at a concentration of 10 ppm at 40° C. for 3 hours, only living protozoa (sporozoites) were counted by microscopy. Then, the mortality rate (%) was measured when each substance was treated compared to a negative control group to which PBS was treated, and the result is shown in Table 5 below.
The Eimeria tenella protozoa were killed by treating the quinic acid or sugarcane extract up to 1000 ppm concentration at maximum, and the minimal treatment concentration showing a mortality rate of 50% or more against Eimeria tenella protozoa was shown in Table 6 below.

[3] = Eimeria tenella, 3 h, read-out: Mortality rate of Eimeria tenella orozites [Killed sporozoites %]
[4] = Eimeria tenella, 3 h, read-out: Mortality rate of Eimeria tenella sporozites [Killed sporozoites %]
[5] = Eimeria tenella, 3 h, read-out: The mortality rate
[6] = Eimeria tenella, each substance treated up to 1000 ppm, minimum concentration with mortality rate of 50% or higher, x not defined (Table 4)

Compound: O=C(O)[C@]1(O)C[C@@H](O)[C@@H](O)[C@H](O)C1 [Quinic acid, quinic acid]
- mortality at 10 ppm [1]: 34%
- mortality at 10 ppm [2, 3]: 32%
- mortality at 10 ppm [2, 4]: 32%
- mortality at 0.78 ppm [2, 5]: 7.4%
- mortality at 1.56 ppm [2, 5]: 14.9%
- mortality at 3.125 ppm [2, 5]: 20.2%
- mortality at 6.25 ppm [2, 5]: 25.5%
- mortality at 12.5 ppm [2, 5]: 31.9%
- mortality at 25 ppm [2, 5]: 35.1%
- mortality at 50 ppm [2, 5]: 55.3%
- mortality at 100 ppm [2, 5]: 59.6%
- mortality at 250 ppm [2, 5]: 91.5%
- mortality at 500 ppm [2, 5]: 97.9%
- mortality at 1000 ppm [2, 5]: 100%
- Minimum Dose for killed 50% sporozoite [2, 6]: 50 ppm
- Minimum Dose for killed 50% sporozoite ([2]; Eimeria tenella, treated up to 1000 ppm at maximum, minimal concentration with mortality rate of 50% or more (Table 6)): 50 ppm

Compound: O=C(/C=C/c1ccc(O)c(O)c1)O[C@H]1[C@H](O)C[C@](O)(C(=O)O)C[C@H]1O [Cryptochlorogenic acid, cryptochlorogenic acid, reference compound]
- Mortality rate of Eimeria tenella sporozites [Killed sporozoites %] ([2]; 10 ppm, 40° C., 3 hours, compared to PBS negative control (Table 5)): 0%

Compound: O=C(O)/C=C/c1cccc(O)c1 [m-coumaric acid, reference compound]
- mortality at 10 ppm [1]: 6.4%
- mortality at 10 ppm ([2]; Eimeria tenella, 10 ppm, 40° C., 3 hours, compared to PBS negative control (Table 3), read-out: Mortality rate of Eimeria tenella orozites [Killed sporozoites %]): 10.7%
- Minimum Dose for killed 50% sporozoite [2, 6]: 500 ppm

Compound: O=C(O)/C=C/c1ccc(O)c(O)c1 [Caffeic acid, caffeic acid, reference compound]
- mortality at 10 ppm [1]: 0%
- mortality at 10 ppm [2, 3]: 0%

Compound: O=C(/C=C/c1ccc(O)c(O)c1)O[C@@H]1C[C@](O)(C(=O)O)C[C@@H](O)[C@H]1O [Chlorogenic acid, chlorogenic acid, reference compound]
- mortality at 10 ppm [1]: 0%
- mortality at 10 ppm [2, 3]: 0%
- mortality at 10 ppm [2, 4]: 0%
- Minimum Dose for killed 50% sporozoite [2, 6]: 500 ppm

Compound: COc1cc(/C=C/C(=O)O)ccc1O [Ferulic acid, ferulic acid, reference compound]
- mortality at 10 ppm [1]: 0%
- mortality at 10 ppm [2, 3]: 0%
